Results published in ChEMBL document CHEMBL3714726, “Substituted quinoxaline carboxylic acids for the inhibition of PASK” (2014).

Assays:
[1] = biological target: PAS domain-containing serine/threonine-protein kinase (Homo sapiens, UniProt Q96RG2); experiment: Inhibition of human recombinant PASK using Ulight-peptide substrate incubated for 2 hrs by TR-FRET assay
[2] = Half life in Sprague-Dawley rat at 1 mg/kg, iv after 0.083 to 24 hrs by LC-MS/MS method; format: ADME, organism-based; settings: in vivo

Chain of PAS domain-containing serine/threonine-protein kinase (Q96RG2 whole entry, the tested form may be a part): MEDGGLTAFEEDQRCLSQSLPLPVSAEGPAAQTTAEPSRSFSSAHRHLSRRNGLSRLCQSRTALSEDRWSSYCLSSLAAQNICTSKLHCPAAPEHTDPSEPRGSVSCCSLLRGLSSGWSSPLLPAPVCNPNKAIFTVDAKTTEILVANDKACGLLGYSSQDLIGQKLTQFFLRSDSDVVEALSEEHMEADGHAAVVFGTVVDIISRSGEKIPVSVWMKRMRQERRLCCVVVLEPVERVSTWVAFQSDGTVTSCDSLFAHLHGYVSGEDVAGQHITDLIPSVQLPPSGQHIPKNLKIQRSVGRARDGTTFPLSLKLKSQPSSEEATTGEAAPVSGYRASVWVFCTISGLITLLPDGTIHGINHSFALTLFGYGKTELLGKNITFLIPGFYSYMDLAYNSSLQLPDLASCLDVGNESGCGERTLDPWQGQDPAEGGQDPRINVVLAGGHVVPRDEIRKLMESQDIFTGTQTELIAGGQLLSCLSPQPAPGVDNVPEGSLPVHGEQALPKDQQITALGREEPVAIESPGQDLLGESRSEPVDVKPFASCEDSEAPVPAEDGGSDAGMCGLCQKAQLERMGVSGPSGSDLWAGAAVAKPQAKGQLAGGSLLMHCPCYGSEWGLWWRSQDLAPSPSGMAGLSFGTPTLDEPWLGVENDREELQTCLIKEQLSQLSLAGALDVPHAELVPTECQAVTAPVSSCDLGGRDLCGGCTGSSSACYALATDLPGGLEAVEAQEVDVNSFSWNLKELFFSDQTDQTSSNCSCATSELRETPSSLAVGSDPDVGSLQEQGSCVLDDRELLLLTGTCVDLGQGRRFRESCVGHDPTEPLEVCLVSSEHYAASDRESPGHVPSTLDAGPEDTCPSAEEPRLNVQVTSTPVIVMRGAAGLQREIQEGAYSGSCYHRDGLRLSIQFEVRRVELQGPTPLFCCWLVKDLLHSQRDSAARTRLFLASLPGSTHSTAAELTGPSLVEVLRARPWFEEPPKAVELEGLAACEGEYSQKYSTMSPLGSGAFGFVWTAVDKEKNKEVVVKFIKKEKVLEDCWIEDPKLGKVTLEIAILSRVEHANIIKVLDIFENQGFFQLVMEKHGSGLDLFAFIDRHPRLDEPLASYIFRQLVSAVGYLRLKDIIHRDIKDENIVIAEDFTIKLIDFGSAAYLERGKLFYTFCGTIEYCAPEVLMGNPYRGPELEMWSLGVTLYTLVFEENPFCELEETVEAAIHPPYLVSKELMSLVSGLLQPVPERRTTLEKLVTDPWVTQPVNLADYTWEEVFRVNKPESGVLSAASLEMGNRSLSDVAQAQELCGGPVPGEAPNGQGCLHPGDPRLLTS

IC50 [1]	half-life [2]	Structure (SMILES)
≤ 10 µM	–	CC(C)N(C)c1nc2cc(C(=O)O)ccc2nc1-c1nc2ccccc2o1
≤ 10 µM	–	COc1ccc(-c2nc3ccc(C(=O)O)cc3nc2N(C)C(C)C)cn1
–	463 min	C[C@H]1COCCN1c1nc2cc(C(=O)O)ccc2nc1-c1ccc(F)cc1
